A short description of data set [1]: In vitro microsomal stability, rat liver microsomes. Type of data set: in vitro ADME. The settings on record: 1 μM, 0.4 mg/mL protein. The procedure: Xenotech, Kansas, USA), suspended in 0.1 M phosphate buffer (pH 7.4). (Details of this assay are described in the Supporting Information.) page 20: fold to attain six assay concentrations of 100-0.001 μg/mL. […] was used as the reference compound in this assay. The highest concentration of DMSO, which was used as the negative control, had no measurable effect on cell viability. After 44 hours of exposure of the cells to the test compounds, a solution of MTT was added. This was followed by an additional 4 hours of incubation at 37 °C. The assay plates were centrifuged, medium removed, and DMSO was added to the crystals. The amount of formazan was ascertained by measuring the absorbance at 540 nm. GraphPad Prism software was then used to generate IC50 values through a non-linear dose-response curve analysis. β-Hematin Inhibition Assay 20 mM stock solutions of controls and test compounds were made in DMSO. A solution […] was added to every well in columns 1-11 of a 96-well plate. 140 μL of water and 40 μL of 305.5 μM NP-40 were added to column 12 to mediate the formation of beta-hematin. 20 μL of test compounds (20 mM) were added to column 12 and 100 μL of this solution serially diluted to column 2, leaving column 1 blank (0 μM of test compound). 178.8 μL aliquot of hematin stock was suspended in 20 ml of a 1 M acetate buffer at pH 4.9. 100 μL of this hematin suspension was then added into each well, and the plates were incubated for ±5 hrs at 37°C. Subsequently, 32 μL of pyridine solution (20% water, 20% acetone, 10% 2M HEPES buffer at pH 7.4 and 50% pyridine) and 60 μL of acetone were added to all wells. The absorbances of plate wells were recorded at 405 nm on a SpectraMax plate reader. Sigmoidal dose-response curves with variable slopes were fitted to the absorbance data using GraphPad Prism to obtain the IC50 values for each compound. In vitro Microsomal Stability Assay The in vitro microsomal stability assay was performed in duplicate in a 96-well micro titre […] individually in human (pool of 50, mixed gender), rat (pool of 711, male Sprague Dawley) and mouse (pool of 1634, male CD1) liver microsomes (final protein concentration of 0.4 mg/mL; Xenotech, Kansas, USA), suspended in 0.1M phosphate buffer (pH 7.4). Incubations were S20 page 21: started by addition of NADPH (1 mM) as cofactor and shaken for 30 minutes at 37 °C. The reactions were then quenched by adding 300 μL of ice-cold acetonitrile containing internal standard (carbamazepine, 0.0236 μg/mL) and centrifuged. The supernatant was transferred to a fresh 96-well plate and analysed by LC-MS/MS (Agilent Rapid Resolution HPLC, AB SCIEX 4500 MS). The relative loss of parent compound over time was monitored and plots (concentration vs. time) were prepared per compound to determine the first order rate constant for compound depletion. This was in turn used to calculate half-life, in vitro intrinsic clearance and in vivo hepatic extraction ratio.6 Metabolite Identification Studies […] microsomes (MLM, male mouse CD1, Lot No. 1510043, Xenotech), magnesium chloride (5 mM) and NADPH (1 mM) in sodium phosphate buffer (100 mM, pH 7.4) for 60 minutes while shaking. The samples were then prepared by ice-cold acetonitrile precipitation, centrifuged, and filtered for LC-MS/MS analysis. […] Fluorescence Live-cell Microscopy […] […]
(Liver microsomes are a subcellular fraction often used to study metabolism.)

The next data set has as its system β-hematin. As to the kind of experiment: β-Hematin inhibition assay (BHIA), cell-free NP-40 mediated. Type of data set: biochemical. The settings on record: mean of n = 3. Here is the method:
page 20: fold to attain six assay concentrations of 100-0.001 μg/mL. […] was used as the reference compound in this assay. The highest concentration of DMSO, which was used as the negative control, had no measurable effect on cell viability. After 44 hours of exposure of the cells to the test compounds, a solution of MTT was added. This was followed by an additional 4 hours of incubation at 37 °C. The assay plates were centrifuged, medium removed, and DMSO was added to the crystals. The amount of formazan was ascertained by measuring the absorbance at 540 nm. GraphPad Prism software was then used to generate IC50 values through a non-linear dose-response curve analysis. β-Hematin Inhibition Assay 20 mM stock solutions of controls and test compounds were made in DMSO. A solution […] was added to every well in columns 1-11 of a 96-well plate. 140 μL of water and 40 μL of 305.5 μM NP-40 were added to column 12 to mediate the formation of beta-hematin. 20 μL of test compounds (20 mM) were added to column 12 and 100 μL of this solution serially diluted to column 2, leaving column 1 blank (0 μM of test compound). 178.8 μL aliquot of hematin stock was suspended in 20 ml of a 1 M acetate buffer at pH 4.9. 100 μL of this hematin […] pH 7.4 and 50% pyridine) and 60 μL of acetone were added to all wells. The absorbances of plate wells were recorded at 405 nm on a SpectraMax plate reader. Sigmoidal dose-response curves with variable slopes were fitted to the absorbance data using GraphPad Prism to obtain the IC50 values for each compound. In vitro Microsomal Stability Assay The in vitro microsomal stability assay was performed in duplicate in a 96-well micro titre […] individually in human (pool of 50, mixed gender), rat (pool of 711, male Sprague Dawley) and mouse (pool of 1634, male CD1) liver microsomes (final protein concentration of 0.4 mg/mL; Xenotech, Kansas, USA), suspended in 0.1M phosphate buffer (pH 7.4). Incubations were S20

A short description of another data set: Solubility. The settings on record: pH 6.5, aqueous buffer. Type of data set: physicochemical. The text has this:
Table 1 In Vitro Antiplasmodium Activity, Cytotoxicity, BHIA, and Solubility | column: Solubility pH 6.5, μM

≈ marks a conversion by molar mass, not a printed value.

As usually defined, the IC50 is the concentration needed to halve the response being measured. Low readings indicate inhibition by little substance, high ones a need for much substance. In general, solubility refers to the concentration that dissolves in the medium under given conditions. A high value points to much dissolved substance.

For `CCN(CCNc1cc2[nH]c(C3CCCC3)nc2cn1)Cc1ccc(Cl)cc1O` [Compound 1, 5-Chloro-2-(((2-((2-cyclopentyl-1H-imidazo[4,5-c]pyridin-6-yl)amino)ethyl)(ethyl)amino)methyl)phenol], the “Microsomal EH (hepatic extraction ratio), rat” value in data set [1] is recorded as 0.75. For the same molecule, half-maximal inhibition with β-hematin (IC50) required 18 µM. For the same molecule, the solubility in “Solubility” came out at 15 µM (≈ 6.21 µg/mL).

Take `CCN(CCNc1cc2[nH]c(C3CC3)nc2cn1)Cc1ccc(Cl)cc1O` [Compound 5, 5-Chloro-2-(((2-((2-cyclopropyl-1H-imidazo[4,5-c]pyridin-6-yl)amino)ethyl)(ethyl)amino)methyl)phenol]: in data set [1], the “Microsomal EH (hepatic extraction ratio), rat” value is reported as 0.73. The molecule further came in with an IC50 in the data set with β-hematin of 16 µM. In “Solubility”, this molecule had a solubility of 25 µM (≈ 9.65 µg/mL).

Turning to `CCN(CCNc1cc2[nH]c(C3(C)CC3)nc2cn1)Cc1ccc(Cl)cc1O` [Compound 6, 5-Chloro-2-((ethyl(2-((2-(1-methylcyclopropyl)-1H-imidazo[4,5-c]pyridin-6-yl)amino)ethyl)amino)methyl)phenol], in data set [1], the “Microsomal EH (hepatic extraction ratio), rat” value stood at 0.73. Further, the 50% inhibitory concentration (IC50) in the data set on β-hematin was found to be 33 µM. Moreover, in the data set “Solubility”, the solubility stood at 200 µM (≈ 80 µg/mL).

As to `CCN(CCNc1cc2[nH]c(-c3cccc(C(F)(F)F)c3)nc2cn1)Cc1ccc(Cl)cc1O` [Compound 14, 5-Chloro-2-((ethyl(2-((2-(3-(trifluoromethyl)phenyl)-1H-imidazo[4,5-c]pyridin-6-yl)amino)ethyl)amino)methyl)phenol], in data set [1], the “Microsomal EH (hepatic extraction ratio), rat” value is 0.70. Moreover, the midpoint of inhibition with β-hematin, the IC50, lay at 9 µM. In the data set “Solubility”, this molecule came in with a solubility of 65 µM (≈ 31.8 µg/mL).

As for `CCN(CCNc1cc2[nH]c(-c3ccc(C(F)(F)F)nc3)nc2cn1)Cc1ccc(Cl)cc1O` [Compound 19, 5-Chloro-2-((ethyl(2-((2-(6-(trifluoromethyl)pyridin-3-yl)-1H-imidazo[4,5-c]pyridin-6-yl)amino)ethyl)amino)methyl)phenol], in data set [1], the “Microsomal EH (hepatic extraction ratio), rat” value came to 0.78. The same molecule yielded an IC50 in the data set with β-hematin of 65 µM. The molecule also gave a solubility in the data set “Solubility” of 140 µM (≈ 68.7 µg/mL).

The values above are taken from article PMC10111423, “Antimalarial Imidazopyridines Incorporating an Intramolecular Hydrogen Bonding Motif: Medicinal Chemistry and Mechanistic Studies” (ACS Infectious Diseases, 2023).
